Entries after “also recorded” stand apart in the source; their conditions may differ. Like-named read-outs stand apart in the source and are kept apart here.
How the values were obtained:
[1] = tested on: HPIV1; type: cell-based
[2] = in vitro; settings: human
[3] = tested on: 3D-ALI-HBTEC
[4] = tested on: HPIV2; type: cell-based
[5] = target: NiV L (Nipah virus, UniProt Q997F0); assay: cell-based
[6] = tested on: HPIV3-infected HBTECs; type: cell-based, human
[7] = tested on: SeV; type: cell-based
[8] = tested on: recHPIV3-JS-NanoLuc; assay: microbe, parasite or virus in culture; type: cell-based
[9] = tested on: HPIV3-JS RdRP; type: cell-based
[10] = in vitro; type: in vitro ADME; settings: plasma
Description: (§1) To determine stability in plasma, GHP-88309 was incubated in triplicate in pooled human or CD-1 mouse plasma (BioIVT) in glass tubes in a 37° C. shaker-incubator (150 rpm). Procaine and benfluorex served as positive controls and were analyzed in parallel. […] To determine stability in liver microsomes, GHP-88309 was incubated in triplicate in glass tubes in 50 mM Tris-HCl (pH 7.5) buffer with 8 mM MgCl2, 25 μg/mL alamethicin, Phase I and Phase II cofactors (NADPH regenerating system (NRS) and 2 mM UDPGA, respectively) and 0.5 mg total protein pooled mixed gender human liver microsomes (BioIVT) or pooled CD-1 mouse liver microsomes (Xenotech) in a 37° C. shaker incubator (150 rpm). Verapamil served as Phase I positive control, negative controls lacked cofactors and contained 2% (w/v) NaHCO3 in water instead of NRS. Aliquots were taken after 0, 15, […], 30, 60 and 120 minutes and processed as outlined above.

[11] = Stability in mouse liver microsomes; type: in vitro ADME
Description: as §1

[12] = tested on: clinical isolates HPIV3-9R4 and HPIV3-10L3; assay: microbe, parasite or virus in culture; type: cell-based
[13] = tested on: MeV L with resistance mutations (LS869P, LI1009F, LY1106S, LS869P/Y942H); type: binding
[14] = Pharmacokinetics analysis in mice; type: in vivo
[15] = tested on: HPIV3; assay: microbe, parasite or virus in culture; type: cell-based
[16] = target: MeV-Edm RdRP (Measles virus, UniProt P12576); type: cell-based
[17] = tested on: RSV; type: cell-based
[18] = tested on: HPIV3 primary transcription; type: cell-based
[19] = tested on: clinical isolates of HPIV3; type: cell-based
[20] = target: CDV-Onderstepoort RdRP (Canine distemper virus, UniProt P24658); type: cell-based
[21] = tested on: influenza A viruses; type: cell-based
[22] = tested on: MeV; type: cell-based
[23] = tested on: HPIV1 isolate 5F6; assay: organism not typed; type: cell-based
[24] = tested on: MeV primary transcription; type: cell-based
[25] = tested on: different immortalized cell lines; assay: Cell proliferation / cytotoxicity in cultured immortalized cell lines; type: cell-based
[26] = target: RSV-derived minigenome (Human respiratory syncytial virus A, UniProt P28887); type: cell-based
[27] = Stability in human liver microsomes; type: in vitro ADME
Description: as §1

[28] = tested on: canine distemper virus (CDV); type: cell-based
[29] = tested on: SeV; parameters: species or system mice; settings: mouse, in vivo
[30] = target: purified MeV L (L1708) (Measles virus, UniProt Q9WMB3); assay: biochemical; type: binding
[31] = target: purified MeV P-L proteins (Measles virus, UniProt Q9WMB3); type: biochemical
[32] = in vitro; settings: African green monkey

Structure (SMILES): NC(=O)c1c(F)cccc1-c1cccc2cnccc12 [GHP-88309, 2-fluoro-6-(5-isoquinolyl)benzamide]
- inhibitory activity [1]: Inhibitory activity
- potency (EC50) against clinical isolates [1]: low-micromolar to submicromolar
- CC50 [2]: 1 mM
- TEER and tight junction organization [3]: unchanged
- inhibitory activity [4]: not inhibited
- EC50 [5]: 314 µM
- IFN-β levels [6]: did not reduce
- ISG expression [6]: enhanced
- inhibitory activity [7]: Inhibitory activity
- EC50 [8]: 590 to 1160 nM
- EC50 ([8]; Human respirovirus 3): < 1000 nM
- EC50 ([8]; Human respirovirus 3, read-out: active concentrations against recHPIV3-JS-NanoLuc): 400 to 780 nM
- inhibition of viral RdRP activity [9]: specific inhibition
- half-life ([10]; CD-1, mouse): > 900 min
- half-life ([10]; human): > 900 min
- half-life ([11]; CD-1, mouse, pooled CD-1 mouse liver microsomes, pH 7.5, mouse liver microsomes, read-out: half-life (t1/2)): > 900 min
- half-life (t1/2) ([11]; mouse liver microsomes): > 24 h
- EC50 ([12]; Human respirovirus 3, HPIV3-9R4 on HBTEC cultures): 70 nM
- EC50 ([12]; Human respirovirus 3, HPIV3-10L3 on HBTEC cultures): 80 nM
- binding [13]: drastically reduced
- effect of multi-day dosing on PK properties ([14]; 150 mg/kg oral, single vs multi dosing): did not significantly (P>0.82) alter
- tolerability ([14]; 5-day multi-dose oral, b.i.d. 150 mg/kg): well tolerated; also recorded: no signs of biotoxicity
- organ concentrations ([14]; all soft tissues incl. lung, 60 minutes after plasma Cmax, single oral 150 mg/kg): 70 to 246 nmol/g
- concentration at 11.5 h ([14]; female, 129x1/SvJ, mouse, plasma, 150 mg/kg oral b.i.d., 4-day treatment period, read-out: drug plasma concentration at trough): ~34 µM
- bioavailability ([14]; female, 129x1/SvJ, mouse, plasma, single-dose oral vs i.v.): ~90%
- sustained drug plasma concentrations ([14]; single oral dose 150 mg/kg): > 30 µM
- EC50 [15]: 105 nM
- sterilizing concentration in the basolateral chamber [15]: 10 µM
- EC50 ([15]; Human respirovirus 3): 90 nM
- inhibition of viral RdRP activity [16]: specific inhibition
- inhibitory activity [17]: not inhibited
- viral mRNA amounts during primary transcription [18]: dose-dependent reduction
- potency (EC50) against clinical isolates [19]: low-micromolar to submicromolar
- inhibition of viral RdRP activity [20]: specific inhibition
- inhibitory activity [21]: not inhibited
- inhibitory activity [22]: Inhibitory activity
- potency (EC50) against clinical isolates [22]: low-micromolar to submicromolar
- EC50 [23]: 280 nM
- viral mRNA amounts during primary transcription [24]: dose-dependent reduction
- effect on cell proliferation ([25]; concentration range up to 100 μM): No toxicity was detectable
- cytotoxicity ([25]; multi-day incubation, up to 1 mM, infected cells highest 300 μM): no cytotoxicity
- inhibition of viral RdRP activity [26]: not affected
- half-life ([27]; both sexes, human, pooled human liver microsomes, pH 7.5, human liver microsomes, read-out: half-life (t1/2)): > 900 min
- half-life (t1/2) ([27]; human liver microsomes): 15.3 h
- inhibitory activity [28]: Inhibitory activity
- IFN-β induction in lung tissue [29]: significantly lower
- IL12b expression in lung tissue [29]: increased
- body temperature [29]: prevented hypothermia
- body weight [29]: alleviated body weight losses
- clinical signs [29]: significantly alleviated
- expression of inflammatory markers (IL-6, TNF, Acod1) [29]: significantly decreased
- humoral anti-SeV response of recoverees [29]: robust humoral anti-SeV response
- lung histopathology [29]: no statistically significant (P=0.62) pathological changes
- lung inflammation and cellular infiltrates [29]: alleviated
- outcome of rechallenge [29]: complete survival without development of clinical signs
- survival [29]: All treated animals survived; also recorded: complete protection
- survival after primary infection [29]: all animals survived
- virus load in lungs [29]: significantly reduced
- virus load in trachea [29]: significantly reduced
- Kd [30]: 6.2 µM
- difference between EC50 and KD concentrations [30]: ~10 fold
- RNA elongation (3′ extension) after back-priming [31]: does not block; also recorded: did not block RNA elongation
- de novo RNA synthesis (initiation at the promoter) [31]: inhibits; also recorded: dose-dependent inhibition
- CC50 [32]: > 20 µM

Source: patent US20220411378A1, “SMALL MOLECULES POLYMERASE INHIBITORS” (GEORGIA STATE UNIVERSITY RESEARCH FOUNDATION, INC., priority 2019, published 2022)
